Data set [1] in a line: CuAAC macrocyclisation (azide + terminal alkyne to 1,4-triazole); CuI 2 eq, DIPEA 3 eq. The settings on record: THF, 1.0 mM, 66.0 °C.
A short description of data set [2]: RuAAC macrocyclisation (azide + terminal alkyne to 1,5-triazole); [Cp*RuCl]4 0.1 eq (more for 30b, 31b). Conditions: the molecule shown is the open-chain precursor, THF, 1.0 mM, 66.0 °C.
A short description of data set [3]: CuAAC macrocyclisation (azide + terminal alkyne to 1,4-triazole); CuI 2 eq, DIPEA 3 eq; yield includes preceding coupling step on crude precursor. Conditions: the molecule shown is the open-chain precursor, THF, 1.0 mM, 66.0 °C, 2 steps.
Data set [4] in a line: RuAAC macrocyclisation (azide + terminal alkyne to 1,5-triazole); [Cp*RuCl]4 0.1 eq (0.2 eq for 28b); yield includes preceding coupling step on crude precursor. The settings on record: the molecule shown is the open-chain precursor, THF, 1.0 mM, 66.0 °C, 2 steps.

As for `CN(C)C(=O)[C@@H]1CCCCn2cc(nn2)CN(CC(=O)OCCC(F)(F)C(F)(F)C(F)(F)C(F)(F)C(F)(F)C(F)(F)C(F)(F)C(F)(F)F)C(=O)c2cccc(c2)NC(=O)N1` [6 -> 24a], the ring closure, isolated yield in data set [1] (from C#CCN(CC(=O)OCCC(F)(F)C(F)(F)C(F)(F)C(F)(F)C(F)(F)C(F)(F)C(F)(F)C(F)(F)F)C(=O)c1cccc(NC(=O)N[C@@H](CCCCN=[N+]=[N-])C(=O)N(C)C)c1, 17-membered ring) amounted to 70%. Consider `C#CCN(CC(=O)OCCC(F)(F)C(F)(F)C(F)(F)C(F)(F)C(F)(F)C(F)(F)C(F)(F)C(F)(F)F)C(=O)c1cccc(NC(=O)N[C@@H](CCCCN=[N+]=[N-])C(=O)N(C)C)c1` [6 -> 24b], for which, in data set [2] (16-membered ring, 6.0 h), the ring closure, isolated yield is 33%. With `O=C1CCc2cccc(c2)NC(=O)NCCc2ccc(cc2)-n2cc(nn2)CN(CC(=O)OCCC(F)(F)C(F)(F)C(F)(F)C(F)(F)C(F)(F)C(F)(F)C(F)(F)C(F)(F)F)C(=O)c2cccc(c2)N1` [13 -> 26a], the ring closure, isolated yield in data set [1] (from C#CCN(CC(=O)OCCC(F)(F)C(F)(F)C(F)(F)C(F)(F)C(F)(F)C(F)(F)C(F)(F)C(F)(F)F)C(=O)c1cccc(NC(=O)CCc2cccc(NC(=O)NCCc3ccc(N=[N+]=[N-])cc3)c2)c1, 25-membered ring, 36.0 h) came out at 60%. For `C#CCN(CC(=O)OCCC(F)(F)C(F)(F)C(F)(F)C(F)(F)C(F)(F)C(F)(F)C(F)(F)C(F)(F)F)C(=O)c1cccc(NC(=O)CCc2cccc(NC(=O)NCCc3ccc(N=[N+]=[N-])cc3)c2)c1` [13 -> 26b], the ring closure, isolated yield in data set [2] (24-membered ring, 5.0 h) is 54%. Turning to `C#CCN(CC(=O)OCCC(F)(F)C(F)(F)C(F)(F)C(F)(F)C(F)(F)C(F)(F)C(F)(F)C(F)(F)F)C(=O)c1cccc(NC(=O)CCc2cccc(NC(=O)NCCc3ccc(NC(=O)N[C@@H](CCCCN=[N+]=[N-])C(=O)N(C)C)cc3)c2)c1` [14 -> 27a (over two steps from 13)], in data set [3] (33-membered ring, 24.0 h), the ring closure, yield over several steps is 31%. As for `C#CCN(CC(=O)OCCC(F)(F)C(F)(F)C(F)(F)C(F)(F)C(F)(F)C(F)(F)C(F)(F)C(F)(F)F)C(=O)c1cccc(NC(=O)CCc2cccc(NC(=O)NCCc3ccc(NC(=O)N[C@@H](CCCCN=[N+]=[N-])C(=O)N(C)C)cc3)c2)c1` [14 -> 27b (over two steps from 13)], the ring closure, yield over several steps in data set [4] (32-membered ring, 24.0 h) amounted to 12%. Regarding `C#CCN(CC(=O)OCCC(F)(F)C(F)(F)C(F)(F)C(F)(F)C(F)(F)C(F)(F)C(F)(F)C(F)(F)F)C(=O)c1cccc(N(C(=O)CCCCCCCN=[N+]=[N-])C(C(=O)NC2CCCCC2)c2ccccc2)c1` (stereo not shown) [17a -> 28a (over two steps from 2)], the ring closure, yield over several steps in data set [3] (18-membered ring) came out at 18%. For the compound `C#CCN(CC(=O)OCCC(F)(F)C(F)(F)C(F)(F)C(F)(F)C(F)(F)C(F)(F)C(F)(F)C(F)(F)F)C(=O)c1cccc(N(C(=O)CCCCCCCN=[N+]=[N-])C(C(=O)NC2CCCCC2)c2ccccc2)c1` (stereo not shown) [17a -> 28b (over two steps from 2)], the ring closure, yield over several steps in data set [4] (17-membered ring, 48.0 h) was found to be 47%. `C#CCN(CC(=O)OCCC(F)(F)C(F)(F)C(F)(F)C(F)(F)C(F)(F)C(F)(F)C(F)(F)C(F)(F)F)C(=O)c1cccc(N(C(=O)CCCCCCCN=[N+]=[N-])C(C(=O)NC2CCCCC2)c2ccc(Br)cc2)c1` (stereo not shown) [17b -> 29a (over two steps from 2)]: in data set [3] (18-membered ring), the ring closure, yield over several steps was determined as 24%. Regarding `C#CCN(CC(=O)OCCC(F)(F)C(F)(F)C(F)(F)C(F)(F)C(F)(F)C(F)(F)C(F)(F)C(F)(F)F)C(=O)c1cccc(N(C(=O)CCCCCCCN=[N+]=[N-])C(C(=O)NC2CCCCC2)c2ccc(Br)cc2)c1` (stereo not shown) [17b -> 29b (over two steps from 2)], in data set [4] (17-membered ring), the ring closure, yield over several steps is 78%. For `CO[C@H]1C(=O)N2c3cccc(c3)C(=O)N(CC(=O)OCCC(F)(F)C(F)(F)C(F)(F)C(F)(F)C(F)(F)C(F)(F)C(F)(F)C(F)(F)F)Cc3cn(nn3)CCCCc3cccc(c3)[C@@H]12` [18a -> 30a (cis beta-lactam)], the ring closure, isolated yield in data set [1] (from C#CCN(CC(=O)OCCC(F)(F)C(F)(F)C(F)(F)C(F)(F)C(F)(F)C(F)(F)C(F)(F)C(F)(F)F)C(=O)c1cccc(N2C(=O)[C@H](OC)[C@@H]2c2cccc(CCCCN=[N+]=[N-])c2)c1, 18-membered ring, 24.0 h) was 61%. For the compound `C#CCN(CC(=O)OCCC(F)(F)C(F)(F)C(F)(F)C(F)(F)C(F)(F)C(F)(F)C(F)(F)C(F)(F)F)C(=O)c1cccc(N2C(=O)[C@H](OC)[C@@H]2c2cccc(CCCCN=[N+]=[N-])c2)c1` [18a -> 30b (cis beta-lactam)], the ring closure, isolated yield in data set [2] (17-membered ring, 48.0 h) turned out to be 33%. As to `CO[C@H]1C(=O)N2c3cccc(c3)C(=O)N(CC(=O)OCCC(F)(F)C(F)(F)C(F)(F)C(F)(F)C(F)(F)C(F)(F)C(F)(F)C(F)(F)F)Cc3cn(nn3)CCCCc3cccc(c3)[C@H]12` [18b -> 31a (trans beta-lactam)], the ring closure, isolated yield in data set [1] (from C#CCN(CC(=O)OCCC(F)(F)C(F)(F)C(F)(F)C(F)(F)C(F)(F)C(F)(F)C(F)(F)C(F)(F)F)C(=O)c1cccc(N2C(=O)[C@H](OC)[C@H]2c2cccc(CCCCN=[N+]=[N-])c2)c1, 18-membered ring, 24.0 h) is 91%. For the compound `C#CCN(CC(=O)OCCC(F)(F)C(F)(F)C(F)(F)C(F)(F)C(F)(F)C(F)(F)C(F)(F)C(F)(F)F)C(=O)c1cccc(N2C(=O)[C@H](OC)[C@H]2c2cccc(CCCCN=[N+]=[N-])c2)c1` [18b -> 31b (trans beta-lactam)], the ring closure, isolated yield in data set [2] (17-membered ring, 96.0 h) was found to be 7%. On to `O=C1C=CN2c3cccc(c3)C(=O)N(CC(=O)OCCC(F)(F)C(F)(F)C(F)(F)C(F)(F)C(F)(F)C(F)(F)C(F)(F)C(F)(F)F)Cc3cn(nn3)CCCCc3cccc(c3)C2C1` (stereo not shown) [19 -> 32a], for which the ring closure, isolated yield in data set [1] (from C#CCN(CC(=O)OCCC(F)(F)C(F)(F)C(F)(F)C(F)(F)C(F)(F)C(F)(F)C(F)(F)C(F)(F)F)C(=O)c1cccc(N2C=CC(=O)CC2c2cccc(CCCCN=[N+]=[N-])c2)c1, 18-membered ring, 20.0 h) came to 33%. Turning to `C#CCN(CC(=O)OCCC(F)(F)C(F)(F)C(F)(F)C(F)(F)C(F)(F)C(F)(F)C(F)(F)C(F)(F)F)C(=O)c1cccc(N2C=CC(=O)CC2c2cccc(CCCCN=[N+]=[N-])c2)c1` (stereo not shown) [19 -> 32b], the ring closure, isolated yield in data set [2] (17-membered ring, 48.0 h) was 19%. On to `O=C(CN1Cc2cn(nn2)CCCCc2cccc(c2)[C@H]2[C@@H]3CC[C@H](CC3=O)N2c2cccc(c2)C1=O)OCCC(F)(F)C(F)(F)C(F)(F)C(F)(F)C(F)(F)C(F)(F)C(F)(F)C(F)(F)F` [20 -> 33 (exo azabicyclooctanone)], for which the ring closure, isolated yield in data set [1] (from C#CCN(CC(=O)OCCC(F)(F)C(F)(F)C(F)(F)C(F)(F)C(F)(F)C(F)(F)C(F)(F)C(F)(F)F)C(=O)c1cccc(N2[C@@H]3CC[C@H](C(=O)C3)[C@@H]2c2cccc(CCCCN=[N+]=[N-])c2)c1, 18-membered ring) came out at 65%.

As to `O=C(CN1Cc2cn(nn2)CCCCc2cccc(c2)[C@H]2Nc3cc(ccc3[C@H]3OCCC[C@@H]23)C1=O)OCCC(F)(F)C(F)(F)C(F)(F)C(F)(F)C(F)(F)C(F)(F)C(F)(F)C(F)(F)F` [21a -> 25a (calculated 0.012/0.021 mmol)], in data set [1] (from C#CCN(CC(=O)OCCC(F)(F)C(F)(F)C(F)(F)C(F)(F)C(F)(F)C(F)(F)C(F)(F)C(F)(F)F)C(=O)c1ccc2c(c1)N[C@H](c1cccc(CCCCN=[N+]=[N-])c1)[C@@H]1CCCO[C@H]21, 18-membered ring), the ring closure, isolated yield was found to be 57%. Take `C#CCN(CC(=O)OCCC(F)(F)C(F)(F)C(F)(F)C(F)(F)C(F)(F)C(F)(F)C(F)(F)C(F)(F)F)C(=O)c1ccc2c(c1)N[C@H](c1cccc(CCCCN=[N+]=[N-])c1)[C@H]1CCCO[C@@H]21` [21b -> 25b (from 21b/21c mixture, over two steps from 2)]: the ring closure, yield over several steps in data set [3] (18-membered ring) came to 4%. Regarding `C#CCN(CC(=O)OCCC(F)(F)C(F)(F)C(F)(F)C(F)(F)C(F)(F)C(F)(F)C(F)(F)C(F)(F)F)C(=O)c1cccc2c1[C@@H]1OCCC[C@@H]1[C@H](c1cccc(CCCCN=[N+]=[N-])c1)N2` [21c -> 25c (from 21b/21c mixture, over two steps from 2)], the ring closure, yield over several steps in data set [3] (18-membered ring) came to 7%.

Take `O=C(CN1Cc2cn(nn2)CCCCc2cccc(c2)[C@@H]2Nc3cccc(c3[C@H]3OCCC[C@H]32)C1=O)OCCC(F)(F)C(F)(F)C(F)(F)C(F)(F)C(F)(F)C(F)(F)C(F)(F)C(F)(F)F` [21d -> 25d (calculated 0.011/0.017 mmol)]: in data set [1] (from C#CCN(CC(=O)OCCC(F)(F)C(F)(F)C(F)(F)C(F)(F)C(F)(F)C(F)(F)C(F)(F)C(F)(F)F)C(=O)c1cccc2c1[C@H]1OCCC[C@H]1[C@H](c1cccc(CCCCN=[N+]=[N-])c1)N2, 18-membered ring), the ring closure, isolated yield came out at 65%. Turning to `C#CCN(CC(=O)OCCC(F)(F)C(F)(F)C(F)(F)C(F)(F)C(F)(F)C(F)(F)C(F)(F)C(F)(F)F)C(=O)c1cccc(NC(C#N)c2cccc(CCCCN=[N+]=[N-])c2)c1` (stereo not shown) [22 -> 34 (over two steps from 2)], in data set [3] (18-membered ring), the ring closure, yield over several steps was 71%.
